Experimental data: PubChem BioAssay AID248 (DTP/NCI, 2004)
Values joined by “and” are separate entries in the source; they are usually repeats but may differ in a detail not shown here. Equal values may be shown once. Toxic doses and inconclusive results are not listed. Cut-off read from the data, not from the text of the source: active = T/C of 150% or more; inactive = T/C below 125%.

Test system: L1210 leukemia ip in BDF1 mice, survival T/C
Assay: NCI In Vivo Anticancer Drug Screen. Data for tumor model L1210 Leukemia (intraperitoneal) in B6D2F1 (BDF1) mice
Settings: endpoint: mean survival time, higher = longer survival
In short: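 Antitumor effect is assessed in tumor-bearing animals. Survival in the compound arm is compared with a vehicle-dosed control arm and expressed as their quotient.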

[1] = dose: 100.0 mg/kg/injection, schedule: Q01DX009 (ip), vehicle: Klucel (hydroxypropylcellulose) (HPC)
[2] = dose: 200.0 mg/kg/injection, schedule: Q01DX009 (ip), vehicle: Klucel (hydroxypropylcellulose) (HPC)
[3] = dose: 400.0 mg/kg/injection, schedule: Q01DX009 (ip), vehicle: Klucel (hydroxypropylcellulose) (HPC)
[4] = dose: 100.0 mg/kg/injection, schedule: Q04DX003 (ip), vehicle: saline
[5] = dose: 100.0 mg/kg/injection, schedule: Q04DX003 (ip), vehicle: Klucel (hydroxypropylcellulose) (HPC)
[6] = dose: 200.0 mg/kg/injection, schedule: Q04DX003 (ip), vehicle: Klucel (hydroxypropylcellulose) (HPC)
[7] = dose: 400.0 mg/kg/injection, schedule: Q04DX003 (ip), vehicle: Klucel (hydroxypropylcellulose) (HPC)
[8] = dose: 100.0 mg/kg/injection, schedule: Q01DX001 (ip), vehicle: Klucel (hydroxypropylcellulose) (HPC)
[9] = dose: 200.0 mg/kg/injection, schedule: Q01DX001 (ip), vehicle: Klucel (hydroxypropylcellulose) (HPC)
[10] = dose: 400.0 mg/kg/injection, schedule: Q01DX001 (ip), vehicle: Klucel (hydroxypropylcellulose) (HPC)
[11] = dose: 100.0 mg/kg/injection, schedule: Q04DX003 (ip), vehicle: saline with Tween-80
[12] = dose: 200.0 mg/kg/injection, schedule: Q04DX003 (ip), vehicle: saline with Tween-80
[13] = dose: 400.0 mg/kg/injection, schedule: Q04DX003 (ip), vehicle: saline with Tween-80
[14] = dose: 25.0 mg/kg/injection, schedule: Q01DX009 (ip), vehicle: saline
[15] = dose: 50.0 mg/kg/injection, schedule: Q01DX001 (ip), vehicle: carboxymethylcellulose (CMC)
[16] = dose: 100.0 mg/kg/injection, schedule: Q01DX001 (ip), vehicle: carboxymethylcellulose (CMC)
[17] = dose: 200.0 mg/kg/injection, schedule: Q01DX001 (ip), vehicle: carboxymethylcellulose (CMC)
[18] = dose: 400.0 mg/kg/injection, schedule: Q01DX001 (ip), vehicle: carboxymethylcellulose (CMC)
[19] = dose: 100.0 mg/kg/injection, schedule: Q04DX002 (ip), vehicle: Klucel (hydroxypropylcellulose) (HPC)
[20] = dose: 200.0 mg/kg/injection, schedule: Q04DX002 (ip), vehicle: Klucel (hydroxypropylcellulose) (HPC)
[21] = dose: 400.0 mg/kg/injection, schedule: Q04DX002 (ip), vehicle: Klucel (hydroxypropylcellulose) (HPC)
[22] = dose: 100.0 mg/kg/injection, schedule: Q01DX009 (ip), vehicle: saline with Tween-80
[23] = dose: 200.0 mg/kg/injection, schedule: Q01DX009 (ip), vehicle: saline with Tween-80

Measured: T/C

CNc1ccc(C(=O)NC(CCC(=O)O)C(=O)O)cc1C(F)(F)F (stereo not drawn)
inactive: [1] 98 % of control | [2] 96 % of control | [3] 98 % of control

CC1(C)CCC2=C1CC[C@H]1[C@H]2CCC2=CC(=O)CC[C@@]21C
inactive: dose: 50.0 mg/kg/injection, schedule: Q01DX001 (sc), vehicle: steriod suspending solution 102 % of control | dose: 100.0 mg/kg/injection, schedule: Q01DX001 (sc), vehicle: steriod suspending solution 96 % of control | dose: 200.0 mg/kg/injection, schedule: Q01DX001 (sc), vehicle: steriod suspending solution 102 % of control | dose: 400.0 mg/kg/injection, schedule: Q01DX001 (sc), vehicle: steriod suspending solution 102 % of control

OCC(O)Cc1ccccc1 (stereo not drawn)
inactive: dose: 100.0 mg/kg/injection, schedule: Q01DX009 (ip), vehicle: saline 97 % of control | [4] 102 % of control | dose: 200.0 mg/kg/injection, schedule: Q01DX009 (ip), vehicle: saline 105 % of control | dose: 200.0 mg/kg/injection, schedule: Q04DX003 (ip), vehicle: saline 102 % of control | dose: 400.0 mg/kg/injection, schedule: Q01DX009 (ip), vehicle: saline 108 % of control | dose: 400.0 mg/kg/injection, schedule: Q04DX003 (ip), vehicle: saline 101 % of control

N#Cc1cnc(N)c(C#N)c1
inactive: dose: 74.0 mg/kg/injection, schedule: Q01DX009 (ip), vehicle: Klucel (hydroxypropylcellulose) (HPC) 98 % of control | dose: 150.0 mg/kg/injection, schedule: Q01DX009 (ip), vehicle: Klucel (hydroxypropylcellulose) (HPC) 100 % of control

CCOC1(c2ccccc2)C(c2ccccc2)N1C(=O)c1ccc([N+](=O)[O-])cc1 (stereo not drawn)
inactive: [5] 92 % of control | [6] 91 % of control | [7] 92 % of control

CCOC(=O)C1CCC(NC(=O)c2ccccc2)CC1 (stereo not drawn)
inactive: [8] 93 % of control | [5] 100 % of control | [9] 93 % of control | [6] 98 % of control | [10] 93 % of control | [7] 94 % of control

CCC(=O)c1ccc(OCC(CN2CCN(c3ccccc3OC)CC2)OC(C)=O)cc1 (stereo not drawn)
inactive: [11] 97 % of control | [12] 105 % of control | [13] 100 % of control

NC(CSC(c1ccccc1)(c1ccccc1)c1ccc(O)cc1)C(=O)O (stereo not drawn)
inactive: dose: 6.25 mg/kg/injection, schedule: Q01DX009 (ip), vehicle: saline 111 % of control | dose: 12.5 mg/kg/injection, schedule: Q01DX009 (ip), vehicle: saline 105 % of control | [14] 116 % of control | dose: 75.0 mg/kg/injection, schedule: Q01DX001 (ip), vehicle: other 104 % of control | dose: 150.0 mg/kg/injection, schedule: Q01DX001 (ip), vehicle: other 109 % of control

O=C1c2cccc3cc([N+](=O)[O-])cc(c23)C(=O)N1Cc1ccco1
inactive: dose: 100.0 mg/kg/injection, schedule: Q04DX002 (ip), vehicle: saline with Tween-80 95 % of control | dose: 200.0 mg/kg/injection, schedule: Q04DX002 (ip), vehicle: saline with Tween-80 120 % of control | dose: 400.0 mg/kg/injection, schedule: Q04DX002 (ip), vehicle: saline with Tween-80 88 % of control

O=C(Sc1ccccc1)C1OC1(c1ccccc1)c1ccccc1 (stereo not drawn)
inactive: [5] 97 % of control | [6] 88 % of control

CNC(=O)OCC(Cl)(Cl)Cl
inactive: [1] 97 % of control | [5] 96 % of control | [2] 98 % of control | [6] 100 % of control | [3] 95 % of control | [7] 100 % of control

CCOC(=O)NC(NC(=O)OCC)c1ccc2c(c1)OCO2
inactive: [15] 105 % of control | [16] 96 % of control | [17] 91 % of control | [18] 94 % of control

CN(C)CN(C)C
inactive: dose: 25.0 mg/kg/injection, schedule: Q01DX001 (ip), vehicle: saline 98 % of control | [14] 89 % of control | dose: 25.0 mg/kg/injection, schedule: Q04DX003 (ip), vehicle: saline 100 % of control | dose: 50.0 mg/kg/injection, schedule: Q01DX001 (ip), vehicle: saline 102 % of control | dose: 50.0 mg/kg/injection, schedule: Q01DX009 (ip), vehicle: saline 100 % of control | dose: 50.0 mg/kg/injection, schedule: Q04DX003 (ip), vehicle: saline 100 % of control | [4] 102 % of control

CCc1cc2oc(C)c(C)c2c(N=Nc2ccc([N+](=O)[O-])cc2)c1O
inactive: [19] 102 % of control | [20] 96 % of control | [21] 99 % of control

CC(=O)C(CCC#N)(CCC#N)C(C)=O
inactive: dose: 50.0 mg/kg/injection, schedule: Q04DX002 (ip), vehicle: Klucel (hydroxypropylcellulose) (HPC) 101 % of control | [19] 95 % of control and 105 % of control | [20] 100 % of control | [21] 97 % of control and 86 % of control

COc1cc(/C=N/O)ccc1O
inactive: dose: 50.0 mg/kg/injection, schedule: Q01DX009 (ip), vehicle: saline with Tween-80 97 % of control and 105 % of control | [22] 97 % of control and 102 % of control | [11] 96 % of control | [23] 107 % of control and 112 % of control | [12] 87 % of control | [13] 91 % of control

NC(=O)NC1C=CC=CC=C1
inactive: dose: 100.0 mg/kg/injection, schedule: Q01DX001 (ip), vehicle: acetone 107 % of control | dose: 200.0 mg/kg/injection, schedule: Q01DX001 (ip), vehicle: acetone 93 % of control | dose: 400.0 mg/kg/injection, schedule: Q01DX001 (ip), vehicle: acetone 98 % of control

CCCCCCSC1=C(SCCCCCC)C(=O)c2[nH]cnc2C1=O
inactive: [15] 100 % of control | [16] 95 % of control | [17] 90 % of control | [18] 90 % of control

O=C(NCCCCCCNC(=O)OCc1ccccc1)OCc1ccccc1
inactive: dose: 10.0 mg/kg/injection, schedule: Q01DX Z (ip), vehicle: saline 98 % of control | dose: 30.0 mg/kg/injection, schedule: Q01DX Z (ip), vehicle: saline 96 % of control | dose: 100.0 mg/kg/injection, schedule: Q01DX Z (ip), vehicle: saline 100 % of control | dose: 300.0 mg/kg/injection, schedule: Q01DX Z (ip), vehicle: saline 98 % of control

O=C1NC(=O)C2(CCc3ccccc3C2)N1 (stereo not drawn)
inactive: dose: 50.0 mg/kg/injection, schedule: Q01DX009 (ip), vehicle: Klucel (hydroxypropylcellulose) (HPC) 96 % of control | [1] 96 % of control | [5] 100 % of control | dose: 100.0 mg/kg/injection, schedule: Q04DX003 (ip), vehicle: acetone 96 % of control | [2] 93 % of control | [6] 97 % of control | dose: 200.0 mg/kg/injection, schedule: Q04DX003 (ip), vehicle: acetone 95 % of control | [7] 97 % of control | dose: 400.0 mg/kg/injection, schedule: Q04DX003 (ip), vehicle: acetone 95 % of control

CCCCCCCCCCCCc1c(C(OC)OC)[nH]c(=S)[nH]c1=O
inactive: [22] 94 % of control | [11] 98 % of control | [23] 100 % of control | [12] 96 % of control | dose: 400.0 mg/kg/injection, schedule: Q01DX009 (ip), vehicle: saline with Tween-80 103 % of control | [13] 93 % of control

Cc1cs[n+](C)c1
inactive: dose: 100.0 mg/kg/injection, schedule: Q01DX001 (ip), vehicle: saline 94 % of control | dose: 200.0 mg/kg/injection, schedule: Q01DX001 (ip), vehicle: saline 97 % of control

CCOc1ccc(-n2c(O)c(N=Nc3ccc(Cl)cc3)c(=O)n(-c3ccccc3)c2=S)cc1
inactive: [8] 104 % of control | [9] 105 % of control | [10] 94 % of control
